This note sets out measurements from ChEMBL document CHEMBL1201862, “PubChem BioAssay data set” (2004).

Assay [1] has as its target Intestinal-type alkaline phosphatase (Mus musculus, UniProt P24822). As to the kind of experiment: PubChem AID 488875. It is filed as functional.
The subject of another assay is Streptococcus. As to the kind of experiment: Group A Streptococcus viability loss, dose response, counter-screen for streptokinase expression inhibitor project, luminescence, BacTiterGlo (AID 1915).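 Further: potency for reduction of bacterial viability or growth.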 It is filed as functional, organism-based. On the technique in general: A counterscreen serves to expose hits that act by an unwanted route or on another target.
For assay [2], the target named is T1, Intestinal-type alkaline phosphatase (Homo sapiens, UniProt P09923). Kind of assay: human intestinal alkaline phosphatase activators, dose response, biochemical, luminescence, uHTS hits (AID 463120). The assay is classed as functional.
T1 sequence (P09923 whole entry): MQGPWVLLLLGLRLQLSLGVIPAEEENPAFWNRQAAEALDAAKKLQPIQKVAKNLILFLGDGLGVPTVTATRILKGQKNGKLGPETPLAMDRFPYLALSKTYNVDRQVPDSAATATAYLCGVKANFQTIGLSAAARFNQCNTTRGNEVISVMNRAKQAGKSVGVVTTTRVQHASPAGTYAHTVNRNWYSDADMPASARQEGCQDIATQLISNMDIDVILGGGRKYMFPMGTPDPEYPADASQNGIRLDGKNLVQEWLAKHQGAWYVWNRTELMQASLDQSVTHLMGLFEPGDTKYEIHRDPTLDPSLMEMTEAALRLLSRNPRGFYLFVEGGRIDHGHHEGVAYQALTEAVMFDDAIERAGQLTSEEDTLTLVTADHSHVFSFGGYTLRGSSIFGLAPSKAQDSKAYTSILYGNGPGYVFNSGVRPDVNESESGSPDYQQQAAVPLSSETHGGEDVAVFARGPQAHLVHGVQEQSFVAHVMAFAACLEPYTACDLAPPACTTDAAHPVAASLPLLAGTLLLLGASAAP
In assay [3] the test system is Streptococcus sp. 'group A'. Kind of assay: growth inhibition of control SK(-) GAS strain, dose response, counter-screen for streptokinase expression inhibitor project, luminescence, kanamycin, BacTiterGlo, confirmation (AID 1900). The assay is classed as functional, organism-based.
Assay [4] addresses T1, Intestinal-type alkaline phosphatase. As to the kind of experiment: human IAP activators, dose response, biochemical, luminescent, uHTS hits, set 2 (AID 488817).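 Further: potency of activators that raise enzyme activity.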 The assay is classed as functional.
The target in assay [5] is NACHT, LRR and PYD domains-containing protein 3 (Homo sapiens, UniProt Q96P20). As to the kind of experiment: NALP3 inhibitors in yeast, dose response, luminescent (AID 488799). It is filed as functional.
In a further assay the target is Nonstructural protein 1 (Influenza A virus, UniProt Q194T2). It is filed as functional, Influenza A virus (A/California/07/2009(H1N1)).
Assay [6] has as its target T2, Alkaline phosphatase, tissue-nonspecific isozyme (Homo sapiens, UniProt P05186).
T2 sequence (P05186 whole entry): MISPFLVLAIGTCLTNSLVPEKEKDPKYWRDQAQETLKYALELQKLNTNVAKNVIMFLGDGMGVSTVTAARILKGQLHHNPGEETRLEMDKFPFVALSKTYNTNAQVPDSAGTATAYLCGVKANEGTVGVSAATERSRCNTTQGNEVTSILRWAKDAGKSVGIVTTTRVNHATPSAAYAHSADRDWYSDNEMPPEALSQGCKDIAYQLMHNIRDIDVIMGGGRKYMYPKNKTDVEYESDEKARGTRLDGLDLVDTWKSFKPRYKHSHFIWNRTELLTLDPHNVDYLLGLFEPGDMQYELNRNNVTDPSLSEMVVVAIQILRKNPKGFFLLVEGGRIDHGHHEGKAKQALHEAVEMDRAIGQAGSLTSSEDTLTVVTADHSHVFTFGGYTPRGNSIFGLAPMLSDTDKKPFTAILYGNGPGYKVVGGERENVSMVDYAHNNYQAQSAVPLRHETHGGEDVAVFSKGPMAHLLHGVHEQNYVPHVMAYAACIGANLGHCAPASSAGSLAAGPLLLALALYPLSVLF
Kind of assay: TNAP enzyme activators, dose response, selectivity assay for human IAP activator project, biochemical, TNAP isozyme, human IAP uHTS hits (AID 488886).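 Further: potency of compounds raising TNAP activity as a selectivity check on IAP activators.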 It is filed as functional.

The target of assay [7] is Melanin-concentrating hormone receptor 1 (Homo sapiens, UniProt Q99705). As to the kind of experiment: Late-stage fluorescence-based counterscreen for antagonists of the G-protein coupled receptor 7 (GPR7): cell-based dose response assay to identify antagonists of the melanin-concentrating hormone receptor 1 (MCHR1). [Related pubchem assays (depositor defined):AID1861, AID1880, AID1952, AID2148, AID2251, AID2257, AID485339]. The assay is classed as functional.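 Further: stimulated with 30 nM MCH peptide agonist.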
Melanin-concentrating hormone receptor 1, sequence (Q99705 whole entry): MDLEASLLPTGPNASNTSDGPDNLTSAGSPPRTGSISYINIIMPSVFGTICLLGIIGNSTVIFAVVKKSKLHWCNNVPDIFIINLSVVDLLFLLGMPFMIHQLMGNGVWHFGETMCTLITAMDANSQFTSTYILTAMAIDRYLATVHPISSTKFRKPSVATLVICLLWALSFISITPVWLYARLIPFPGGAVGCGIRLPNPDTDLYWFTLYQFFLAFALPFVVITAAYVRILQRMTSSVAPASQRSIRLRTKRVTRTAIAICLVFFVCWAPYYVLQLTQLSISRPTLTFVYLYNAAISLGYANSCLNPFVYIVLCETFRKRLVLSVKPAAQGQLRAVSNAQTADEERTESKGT

Assay [8] has as its target Neuropeptides B/W receptor type 1 (Homo sapiens, UniProt P48145). As to the kind of experiment: GPR7 antagonist potency, late-stage follow-up, cell-based, fluorescence, dose response (AID 463251). The assay is classed as functional.
The target of another assay is Caspase-7 (Homo sapiens, UniProt P55210). As to the kind of experiment: procaspase-7 activators, dose response, dual procaspase-3/-7 activator project, biochemical, absorbance, human (AID 504330).
A further assay deals with T3, Caspase-3 (Homo sapiens, UniProt P42574).
T3 sequence (P42574 whole entry): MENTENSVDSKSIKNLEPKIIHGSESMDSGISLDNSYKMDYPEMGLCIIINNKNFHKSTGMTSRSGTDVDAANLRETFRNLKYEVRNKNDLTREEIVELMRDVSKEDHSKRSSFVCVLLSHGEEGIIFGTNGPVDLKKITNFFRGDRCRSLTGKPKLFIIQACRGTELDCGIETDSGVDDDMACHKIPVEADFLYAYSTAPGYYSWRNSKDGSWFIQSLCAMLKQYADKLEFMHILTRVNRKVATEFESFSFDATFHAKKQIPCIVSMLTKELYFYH
As to the kind of experiment: procaspase-3 activation potency of dual hits, dose response, counter-screen for dual procaspase-3/7 activator project, biochemical, absorbance, PC-3 D3A mutant (AID 504328).

Assay [9] concerns the target 72 kDa type IV collagenase (Homo sapiens, UniProt P08253). As to the kind of experiment: Dose Response validation of uHTS RPN11 inhibitor hits using a MMP-2 Fluorescence assay. It is filed as functional.
In assay [10] the target is T4, Voltage-gated N-type calcium channel alpha-1B subunit/Amyloid beta A4 precursor protein-binding family A member 1 (Homo sapiens, UniProt Q00975+Q02410). It is filed as protein assay.
T4 sequence (Q00975 whole entry): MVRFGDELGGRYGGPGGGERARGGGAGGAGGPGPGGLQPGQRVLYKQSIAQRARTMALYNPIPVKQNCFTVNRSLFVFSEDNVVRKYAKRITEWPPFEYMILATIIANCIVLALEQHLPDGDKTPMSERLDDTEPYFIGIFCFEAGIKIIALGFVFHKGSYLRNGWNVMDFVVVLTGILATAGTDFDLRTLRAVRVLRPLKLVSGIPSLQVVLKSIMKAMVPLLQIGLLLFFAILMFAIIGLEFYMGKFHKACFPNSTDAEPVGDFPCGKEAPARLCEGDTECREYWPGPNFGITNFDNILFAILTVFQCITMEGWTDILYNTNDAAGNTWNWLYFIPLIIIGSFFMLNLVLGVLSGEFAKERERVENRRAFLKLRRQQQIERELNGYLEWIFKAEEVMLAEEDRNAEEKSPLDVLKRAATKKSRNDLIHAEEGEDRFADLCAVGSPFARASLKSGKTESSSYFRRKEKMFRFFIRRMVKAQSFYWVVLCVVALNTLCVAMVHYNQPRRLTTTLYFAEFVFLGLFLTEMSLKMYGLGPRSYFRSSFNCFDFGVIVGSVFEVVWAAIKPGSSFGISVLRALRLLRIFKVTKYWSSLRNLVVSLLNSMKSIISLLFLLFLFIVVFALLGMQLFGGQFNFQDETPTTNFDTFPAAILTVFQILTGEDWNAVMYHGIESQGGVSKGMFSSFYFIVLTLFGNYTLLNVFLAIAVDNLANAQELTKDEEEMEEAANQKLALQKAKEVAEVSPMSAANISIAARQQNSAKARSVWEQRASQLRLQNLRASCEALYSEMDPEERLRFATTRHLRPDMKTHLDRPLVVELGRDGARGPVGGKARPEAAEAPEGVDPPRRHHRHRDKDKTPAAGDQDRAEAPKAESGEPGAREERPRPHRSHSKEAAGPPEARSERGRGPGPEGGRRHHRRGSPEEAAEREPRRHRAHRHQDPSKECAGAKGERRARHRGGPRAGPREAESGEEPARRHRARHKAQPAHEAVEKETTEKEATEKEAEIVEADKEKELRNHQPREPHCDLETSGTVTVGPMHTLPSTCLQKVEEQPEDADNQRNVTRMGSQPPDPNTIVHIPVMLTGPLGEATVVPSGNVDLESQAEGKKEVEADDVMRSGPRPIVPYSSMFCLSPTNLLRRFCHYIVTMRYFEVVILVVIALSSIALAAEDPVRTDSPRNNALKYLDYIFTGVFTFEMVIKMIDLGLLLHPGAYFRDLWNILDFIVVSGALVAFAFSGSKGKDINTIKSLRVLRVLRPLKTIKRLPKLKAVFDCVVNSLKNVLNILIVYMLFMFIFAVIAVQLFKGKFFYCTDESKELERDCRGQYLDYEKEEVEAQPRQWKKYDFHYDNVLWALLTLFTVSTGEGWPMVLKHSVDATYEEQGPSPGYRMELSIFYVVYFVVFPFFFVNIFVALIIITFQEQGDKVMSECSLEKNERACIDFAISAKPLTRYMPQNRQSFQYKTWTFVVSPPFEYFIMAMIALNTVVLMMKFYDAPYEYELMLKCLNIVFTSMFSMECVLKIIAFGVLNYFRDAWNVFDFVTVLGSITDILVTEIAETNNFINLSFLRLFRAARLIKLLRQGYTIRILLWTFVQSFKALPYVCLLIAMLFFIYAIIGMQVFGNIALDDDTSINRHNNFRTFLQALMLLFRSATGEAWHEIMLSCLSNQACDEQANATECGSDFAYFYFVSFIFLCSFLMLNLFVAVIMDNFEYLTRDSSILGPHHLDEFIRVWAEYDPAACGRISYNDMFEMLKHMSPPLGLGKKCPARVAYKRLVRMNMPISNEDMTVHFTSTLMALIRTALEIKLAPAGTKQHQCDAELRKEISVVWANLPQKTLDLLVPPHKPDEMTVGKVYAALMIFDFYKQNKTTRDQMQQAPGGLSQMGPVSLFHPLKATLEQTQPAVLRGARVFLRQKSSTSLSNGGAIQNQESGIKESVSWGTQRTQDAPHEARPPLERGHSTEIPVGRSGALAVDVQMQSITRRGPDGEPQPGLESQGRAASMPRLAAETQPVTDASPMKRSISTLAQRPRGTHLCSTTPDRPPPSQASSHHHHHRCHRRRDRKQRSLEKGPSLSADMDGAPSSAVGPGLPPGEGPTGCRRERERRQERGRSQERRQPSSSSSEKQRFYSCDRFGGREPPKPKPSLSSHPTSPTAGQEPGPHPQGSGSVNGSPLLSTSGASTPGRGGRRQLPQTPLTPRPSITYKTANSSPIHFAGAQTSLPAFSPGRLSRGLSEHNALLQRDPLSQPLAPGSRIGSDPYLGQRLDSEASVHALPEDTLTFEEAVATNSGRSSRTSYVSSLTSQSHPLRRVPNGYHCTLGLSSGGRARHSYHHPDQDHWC
T4 sequence (Q02410 whole entry): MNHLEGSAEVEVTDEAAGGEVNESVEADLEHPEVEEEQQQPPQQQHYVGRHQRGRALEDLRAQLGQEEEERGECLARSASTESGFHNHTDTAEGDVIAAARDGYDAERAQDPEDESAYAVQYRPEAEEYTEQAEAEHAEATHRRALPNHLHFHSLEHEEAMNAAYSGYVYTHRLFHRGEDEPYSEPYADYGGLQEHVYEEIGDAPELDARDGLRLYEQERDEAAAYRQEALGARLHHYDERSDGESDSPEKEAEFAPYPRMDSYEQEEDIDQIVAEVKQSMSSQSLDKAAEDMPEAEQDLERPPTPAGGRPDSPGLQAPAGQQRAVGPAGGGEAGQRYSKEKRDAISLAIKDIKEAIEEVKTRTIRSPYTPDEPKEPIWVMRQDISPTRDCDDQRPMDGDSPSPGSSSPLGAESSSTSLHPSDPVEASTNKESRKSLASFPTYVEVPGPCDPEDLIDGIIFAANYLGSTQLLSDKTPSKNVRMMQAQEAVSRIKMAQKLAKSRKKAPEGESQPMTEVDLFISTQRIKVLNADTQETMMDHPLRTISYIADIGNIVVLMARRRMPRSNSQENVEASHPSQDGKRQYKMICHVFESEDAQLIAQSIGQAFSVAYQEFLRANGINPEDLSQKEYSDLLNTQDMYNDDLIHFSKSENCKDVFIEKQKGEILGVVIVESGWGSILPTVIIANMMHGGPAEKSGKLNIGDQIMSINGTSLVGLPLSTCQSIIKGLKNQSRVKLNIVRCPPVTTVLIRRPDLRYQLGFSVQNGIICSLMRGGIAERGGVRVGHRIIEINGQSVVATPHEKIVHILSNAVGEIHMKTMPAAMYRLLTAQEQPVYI
The target of assay [11] is G-protein coupled receptor 35 (Homo sapiens, UniProt Q9HC97). As to the kind of experiment: GPR35 antagonists blocking zaprinast-driven arrestin recruitment, primary screen, imaging, U2OS, beta-arrestin-GFP, zaprinast agonist (AID 2058).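 Further: antagonist potency meaning inhibition of agonist-induced arrestin redistribution.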 It is filed as functional. (In general: Activated receptors often draw arrestin, which recruitment assays turn into a signal.)
G-protein coupled receptor 35, sequence (Q9HC97 whole entry): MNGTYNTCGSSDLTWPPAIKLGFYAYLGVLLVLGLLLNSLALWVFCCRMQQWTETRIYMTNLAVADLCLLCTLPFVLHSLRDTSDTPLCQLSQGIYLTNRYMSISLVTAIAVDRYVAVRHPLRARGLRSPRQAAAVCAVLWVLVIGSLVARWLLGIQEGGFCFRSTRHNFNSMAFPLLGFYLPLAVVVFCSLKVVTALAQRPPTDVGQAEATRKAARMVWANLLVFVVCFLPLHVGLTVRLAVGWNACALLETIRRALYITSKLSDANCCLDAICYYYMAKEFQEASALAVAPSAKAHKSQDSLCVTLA
Assay [12] deals with Induced myeloid leukemia cell differentiation protein Mcl-1 (Homo sapiens, UniProt Q07820). It is filed as functional.
Another assay addresses Prothrombin (Bos taurus, UniProt P00735). Kind of assay: thrombin inhibition, dose response, biochemical, fluorescence polarization, uHTS hits (AID 602369). The assay is classed as functional. Background: Polarisation of emitted light reports the rotation of a fluorescent probe.
The target in assay [13] is T4, Voltage-gated N-type calcium channel alpha-1B subunit/Amyloid beta A4 precursor protein-binding family A member 1. It is filed as protein assay. This is another data set of the same source.
The target in assay [14] is 26S proteasome non-ATPase regulatory subunit 14 (Homo sapiens, UniProt O00487). Kind of assay: inhibition of proteasome subunit RPN11 – biochemical, fluorescence polarization, uHTS hits, confirmation (AID 602368). It is filed as functional.
For assay [15], the target named is Eukaryotic translation initiation factor 4E (Mus musculus, UniProt P63073). As to the kind of experiment: eIF4E–eIF4G protein interaction inhibitors, dose response, biochemical, TR-FRET (AID 855).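 Further: potency for disrupting eIF4E binding to eIF4GI seen as loss of FRET.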 The assay is classed as functional.

Calls of active or inactive are those of the source. A value given as a limit tells only on which side of the number the result lay.

Intestinal-type alkaline phosphatase (Mus musculus, UniProt P24822), sequence (P24822 whole entry): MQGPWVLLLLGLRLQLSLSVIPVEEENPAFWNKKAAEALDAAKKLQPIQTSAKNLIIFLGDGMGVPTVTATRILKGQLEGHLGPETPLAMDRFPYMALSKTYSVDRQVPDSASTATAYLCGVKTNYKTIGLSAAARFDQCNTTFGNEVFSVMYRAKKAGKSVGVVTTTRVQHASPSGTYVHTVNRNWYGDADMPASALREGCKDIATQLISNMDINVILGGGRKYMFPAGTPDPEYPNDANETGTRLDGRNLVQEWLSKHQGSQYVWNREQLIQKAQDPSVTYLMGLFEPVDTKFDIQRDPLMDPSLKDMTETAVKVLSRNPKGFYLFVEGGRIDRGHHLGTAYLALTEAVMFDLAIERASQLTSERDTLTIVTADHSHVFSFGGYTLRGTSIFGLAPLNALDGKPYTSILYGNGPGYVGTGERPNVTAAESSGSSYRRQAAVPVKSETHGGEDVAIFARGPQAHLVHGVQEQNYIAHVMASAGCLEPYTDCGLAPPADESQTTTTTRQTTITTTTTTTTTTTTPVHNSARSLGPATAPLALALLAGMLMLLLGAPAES

As usually defined, the EC50 is the concentration giving half of the maximal effect. The term IC50 denotes the midpoint of a concentration-inhibition curve. Regarding `O=C(NC(=S)NNC(=O)c1ccccc1O)c1ccc(F)cc1`, the EC50 in [1] is > 100 µM (inactive); with Streptococcus, 7.74 µM (active); in assay [2], 8.25 µM (active); in assay [3], 3.21 µM (active); in assay [4], 12.2 µM (active); in assay [6], 12.4 µM (active). In addition, the IC50 in [5] was 7.94 µM (active); on Nonstructural protein 1 it was 12.2 µM (active).
In the case of `Cc1ccc(-n2ncc(Cl)c(Oc3ccc(C(F)(F)F)cc3)c2=O)cc1`, the IC50 in assay [7] is 5.5 µM (active); in assay [8], 2.2 µM (active).
`COc1ccc2c(c1OC)C(=O)OC2CC(=O)c1ccc(N(C)C)cc1` (stereo not given): the EC50 at Caspase-7 and on Caspase-3 was > 85.3 µM (inactive) throughout.
Regarding `N=C1/C(=C/c2ccc(-c3cccc(C(=O)O)c3)o2)C(=O)N=C2SC=C(c3ccccc3)N12`, the IC50 in [9] was 6.29 µM (active); in assay [10], 13.3 µM (active); in [11], 1.1 µM (active); in assay [12], > 54 µM (active); on Prothrombin it was 10.2 µM (active); in [13], > 50 µM (inactive). In addition, the results for the IC50 in assay [14] and in assay [15] were 5.82 µM (active) and 18.1 µM (active), respectively.
